# Residues, ends and D or L forms follow the SMILES beside them. *: point of attachment. Tos = Cc1ccc(S(=O)(=O)*)cc1
row,SMILES,melting point [°C]
1,CCOc1cc2ncc(C#N)c(Nc3ccccc3)c2cc1OCC,168 to 170
2,CON=Cc1nc2c(N)nc3cc(-c4ccccc4)ccc3c2s1,259 to 261
3,COc1cc(N)c(Cl)cc1-c1nn(C2CC3CCC(C2)N3C)c(=O)o1 (stereo unspecified),208
4,C/C(=C\F)CN1C(=O)c2ccccc2C1=O,57 to 58
5,CCOC(=O)CN1CCN(c2ccc(C#N)cc2)CC1=O,108
6,Cc1ncc2cc(-c3c(Cl)cccc3Cl)c(NS(C)(=O)=O)nc2n1,212 to 213
7,c1ccc(COc2ccc(-c3ccc(OCc4ccccc4)cc3)cc2)cc1,222 to 224
8,O=Cc1cn(Cc2ccc(OCc3coc(-c4ccccc4)n3)cc2)nc1-c1cccs1,153 to 154
9,N#Cc1[nH]c(-c2ccc(Cl)cc2)c(Br)c1-c1ccc(Cl)cc1,98 to 100
10,Cc1cccc(-c2nc3cccnn3c2-c2ccnc(NCc3ccco3)c2)c1,150 to 151
11,COC(=O)c1cc(I)c[nH]c1=O,190 to 192
12,C=Cc1ccc(CCOC(=O)CC(C)NC(N)=O)cc1 (stereo unspecified),117 to 119
13,CN1C(C)(C)CC(CO)CC1(C)C,84 to 85
14,CSc1ncc(S(=O)(=O)NC(C)(C)C)c(Cl)n1,117 to 118
15,CC(CCCc1ccc(CCCCNC(=N)NC(=O)c2nc(Cl)c(N)nc2N)cc1)NCC(O)c1cccc(O)c1 (stereo unspecified),82 to 86
16,Cc1c(Br)cccc1NS(=O)(=O)c1cc(S(=O)(=O)Nc2cccc(Br)c2C)c2ccccc2c1O,246 to 248
17,CCOC(=O)C1=C(COCc2nnc(C)o2)NC(C)=C(C(=O)OC)C1c1cccc(Cl)c1Cl (stereo unspecified),118 to 120
18,Cc1cc(N(C)Cc2ccc(-c3ccc(C(F)(F)F)cc3)nc2C)cc(C)c1OCC(=O)O,137 to 138
19,CC12CCC(S(=O)(=O)C(F)(F)F)=CC1=CCC1C2CCC2(C)C(C(=O)O)CCC12 (stereo unspecified),182
20,CCOC(=O)c1ccc(NC(=O)CC(CNS(=O)(=O)c2ccc(C)cc2)c2ccccc2)cc1 (stereo unspecified),135 to 137
21,COc1cc(N)c(Cl)cc1C(=O)NCC1CN(CC2CCN(C(=O)N(C)C)CC2)CCO1 (stereo unspecified),179 to 180
22,CCc1cn(C2CC(O)(C(C)=O)C(CO)O2)c(=O)[nH]c1=O (stereo unspecified),150
23,CCC(=O)OCC(OC(=O)CC)c1nc2c(C(F)(F)F)cccc2c(O)c1C(=O)Nc1nccs1 (stereo unspecified),206
24,O=C(O)c1ccccc1N1CCN(c2cccc(C(F)(F)F)c2)C1=O,197 to 198

row,SMILES,melting point [°C]
1,CCOC(=O)c1c(C)nc2c(c1N)c1c(n2Cc2ccccc2)CCCC1,146 to 147
2,Fc1ccc2[nH]cc(Cc3cccnc3)c2c1,109 to 112
3,COc1ccc(C)cc1NC(=O)Nc1ccc(N2CCN(C(=O)Oc3ccc(CCO)cc3Cl)CC2)cc1,189 to 190
4,COC(=O)C[C@@H](CC(=O)/C=C/c1c(-c2ccc(F)cc2)c(-c2ccc(F)cc2)c(C(=O)Nc2cccc(C(=O)N(C)C)c2)n1C(C)C)O[Si](C)(C)C(C)(C)C,135 to 137
5,CCc1cc(OCc2cccc(C(=O)OC)c2)cc(O)c1C(C)=O,132
6,N#CCC(=O)c1ccc(Br)cc1,164
7,COc1ccc(/C=C/c2ccccc2[N+](=O)[O-])c([N+](=O)[O-])c1,142 to 143
8,NS(=O)(=O)c1ccc(N2N=C(C(F)(F)F)CC2c2c[nH]c3ccccc23)cc1 (stereo unspecified),138 to 140
9,O=C(Cc1ccc(Cl)cc1Cl)c1cccnc1,78 to 79
10,O=C1CCCc2c1c1cccc3c1n2CC3,208 to 210
11,COc1cc(-c2cnc3[nH]cc(C(=O)NCC(C)(C)CO)c3n2)cc(OC)c1OC,224 to 225
12,O=c1c2cc(Oc3ccc(Cl)cc3)ccc2cnn1Cc1cccnc1,150 to 152
13,O=S(=O)(On1nnc2ccccc21)c1ccccc1,83 to 84
14,COc1ccc2[nH]c3c(c2c1)C[C@@]1(C)C(=O)N(CCN2CCCC2)C(=O)N1[C@@H]3c1cccc(O)c1 (racemic),252 to 255
15,CCCN(CCC)Cc1cnc(-c2ncn3c2[C@@H]2CCN2C(=O)c2ccccc2-3)o1,132 to 134
16,CCCCC1(CCCC)CCc2c(OCc3ccccc3C#N)cccc2C1O (stereo unspecified),112 to 113
17,O=C(Nc1cccc(C(F)(F)F)c1)C(=O)N1CCC(Cc2ccc(F)cc2)CC1,113 to 115
18,Cc1ccc(S(=O)(=O)N2CCC[C@H]2C(=O)N[C@@H](CCC(=O)O)C(=O)O)cc1 (Tos-Pro-Glu-OH),164 to 166
19,CCc1nc2c(cnn2CC)c(NC2CCOCC2)c1CNC(=O)c1cccc(C(=O)NCc2ccc(Cl)c(Br)c2)c1,115 to 117
20,CCCCOCc1cc2ccccc2oc1=O,69 to 70
21,COc1cc(N)c(Cl)cc1C(=O)N[C@H]1CCN(CCNc2nccnc2C)C[C@H]1OC (relative stereo),170
22,CCOc1ccc2ccccc2c1-c1c(OCC)ccc2ccccc12,92
23,CCOC(=O)C=Cc1cc2cc(OC)ccc2nc1Cl,113 to 114
24,COc1cc(Cl)ccc1C(=O)NC1CN(c2ccc(F)cc2)CCn2c1nc(-c1ccncn1)cc2=O (racemic),207 to 209

row,SMILES,melting point [°C]
1,CC(=O)N(O)C(C)c1cc(C(C)(C)C)c(O)c(C(C)(C)C)c1 (stereo unspecified),153 to 154
2,CCn1nc(-c2cnc3[nH]cc(C(=O)N[C@H](C)C(=O)N4CC(C#N)C4)c3n2)c2ccc(Cl)cc21,248 to 255
3,Nc1cscc1NC(=S)Nc1c(Cl)cccc1Cl,165
4,O=C1CCCN1C(=O)Oc1cccc([N+](=O)[O-])c1,130 to 131
5,CC(C)[C@H](NS(=O)(=O)c1ccc2c(c1)Sc1ccccc1O2)C(=O)O,171 to 175
6,FC(F)(F)c1n[nH]c2ccc(Br)cc12,168 to 169
7,CCNc1ccc(C#N)cc1[N+](=O)[O-],130 to 132
8,COCc1cc(O)c2nc(C)n(C)c2c1,219 to 220
9,CCOC(=O)c1nc2scc(CNC(=O)c3ccccc3)c2c(=O)[nH]1,204
10,C=CCNc1nc(NCC=C)nc(N2CCN(C(=O)NCC(c3ccccc3)c3ccccc3)CC2)n1,90 to 92
11,CC(C)=NOc1cc(Cl)ccc1C#N,83 to 84
12,N#Cc1nc2ncccc2[nH]1,200
13,O=C(c1ccccc1Cl)c1cc(Cl)ccc1-n1cnnc1CCl,139 to 140
14,BrCc1c(Br)c(Br)c(CBr)c(Br)c1Br,268 to 271
15,CC1=c2c(cc3c(c2C)-c2ccccc2N=3)N=C1c1nc(C)no1,248 to 249
16,CC(CS(=O)(=O)c1ccc(-c2ccc3c(c2)OCO3)cc1)N(O)C=O (stereo unspecified),200 to 201
17,CN1CCN(c2ccc(O)c3c2C[C@H](NC(=O)c2ccc(N4CCOCC4)cc2)CC3)CC1,84 to 88
18,COc1ccc(COc2coc(COC3CCCCO3)cc2=O)cc1 (stereo unspecified),95 to 96
19,CCOC(=O)CC(=O)c1cc(F)c(OP(=O)(Oc2ccccc2)Oc2ccccc2)nc1Nc1ccc(F)cc1F,85 to 86
20,C=C1CCC2=C(C1)CC(C)C1C2CCC2(C)C(O)CCC12 (stereo unspecified),112
21,CCC(O)c1nc2c(C(F)(F)F)cccc2c(O)c1C(=O)Nc1nccs1 (stereo unspecified),180
22,NS(=O)(=O)c1ccc(-n2nc(C(F)(F)F)c(CO)c2-c2ccccc2)cc1,179 to 180
23,CCCN(CCC)S(=O)(=O)c1ccc(C(=O)c2cc3c(cc2C)OC(C(=O)OCC)O3)cc1 (stereo unspecified),97 to 99
24,COC(=O)CC1=C(C)Cc2ccc(SC)cc21,200 to 210

row,SMILES,melting point [°C]
1,CC(C)(O)Cn1c(CO)nc2c(N)nc3cc(CCCNS(C)(=O)=O)ccc3c21,202 to 205
2,COC(=O)C[C@@H](CC(=O)C=Cc1c(-c2ccc(F)cc2)c(-c2ccc(F)cc2)c(C(=O)Nc2ccc(S(N)(=O)=O)cc2)n1C(C)C)O[Si](C)(C)C(C)(C)C,108 to 110
3,BrCCCCCCOc1nc(-c2ccccc2)c(-c2ccccc2)n1-c1ccccc1,87 to 89
4,COC(=O)Nc1ccc(C(=O)N(C)C)c(S(=O)(=O)NC(C)(C)C)c1,184 to 188
5,CS(=O)(=O)c1ccc(-c2cnn(CCC(F)=C(F)F)c(=O)c2-c2ccc(F)cc2)cc1,131 to 132
6,COc1ccc2c(=O)c3oc4c5ccccc5ccc4c3oc2c1,282 to 284
7,CCC(C)(C)C(=O)OCc1cccc(C)c1OCCOc1ccc([C@H](N)C(=O)O)cc1,170 to 172
8,Fc1ccc(-c2[nH]cc(CCCN3CCN(Cc4ccccc4)CC3)c2-c2ccncc2)cc1,153 to 154
9,Cc1ccc(S(=O)(=O)OCC2CN(C(=O)Oc3ccccc3)CCO2)cc1 (stereo unspecified),101 to 103
10,CC(=O)CN1C(=O)c2ccc3ccccc3c2S1(=O)=O,163 to 165
11,COC(=O)c1cccc(-c2nc(-c3ccc(C(F)(F)F)cc3)co2)c1,151 to 152
12,C[C@H]1CCCN(C(=O)[C@@H]2Cc3cc(-c4ccccc4)ccc3N2c2ccc(=O)n(C)n2)C1,204 to 206
13,Nc1nc(Nc2cccc(C(F)(F)F)c2)nc(OCC(F)(F)F)n1,133 to 135
14,Nc1c([N+](=O)[O-])cnn1-c1c(Cl)cc(C(F)(F)F)c(F)c1Cl,156
15,COc1ccc(-c2cc(-c3ccccc3)[nH]c2C(=O)NCc2ccc(C(=O)NCCS)cc2)cc1,131 to 132
16,Cc1nnc2n1-c1sc(CC(=O)O)cc1C(c1ccccc1Cl)=NC2C (stereo unspecified),222 to 225
17,CCOC(=O)Nc1cc(Oc2ccc3ccccc3c2)c(C#N)cc1F,132
18,CC(=O)NC(CSC(=O)C(C)C)C(=O)NCCSC(C)=O (stereo unspecified),116 to 118
19,CCOCc1cc2ccccc2oc1=O,95 to 96
20,NS(=O)(=O)c1ccc(CCN2C(=O)c3ccccc3C2=O)s1,226 to 229
21,CCOC(=O)c1ncc2[nH]c3ccc(C(=O)OCc4ccccc4)cc3c2n1,271 to 272
22,COc1ccc(-c2c(C(C)=O)c(CSc3nccn3C)nc3cc(OC)c(OC)cc23)cc1OC,175 to 176
23,NC(=O)CN1C(=O)[C@@H](N)[C@H](c2ccccc2)Sc2ccccc21 (relative stereo),196 to 200
24,COC(=O)CNc1cccc(OCc2ccccc2)c1,92 to 94

# From a melting point compilation (Tetko et al.; mined from patent text by program, amines drawn as free bases though some values may be those of a salt)
